Measured values: publication PMC8158687, “Xanthones Active against Multidrug Resistance and Virulence Mechanisms of Bacteria” (Antibiotics, 2021)

How the values were obtained:
Serratia marcescens AS-1 = experiment: Quorum sensing inhibition assay (disk, pigment production); format: cell-based; details: AS1, read-out: Quorum Sensing Inhibition (mm) ± SD
Description: (§1) The sensor strain Chromobacterium violaceum CV026 and the acyl-homoserine lactones (AHLs) producer strain Sphingomonas paucimobilis Ezf 10-17 (EZF) were inoculated as parallel lines, and the AHL producers, Chromobacterium violaceum wild type 85 (wt85) and Serratia marcescens AS-1 were inoculated as a single line.
(§2) For the QS tests, all the bacteria used were Gram-negative. The bacteria used were Chromobacterium violaceum wild type 85 (wt85), characterized by the AHL signal molecule-mediated production of the purple violacein pigment, capable of endogenous QS-signal molecule production (N-hexanoyl-L-HSL), C. violaceum CV026 (CV026), a Tn5 transposase-mutant, AHL-signal molecule indicator strain (produces purple violacein pigment in the presence of AHL), which is incapable of endogenous QS-signal molecule-production, but useful in the detection of external stimuli, Sphingomonas paucimobilis Ezf 10-17 (EZF), AHL-producing-strain (used with C. violaceum CV026), and Serratia marcescens AS-1, characterized by the AHL signal molecule-mediated production of the orange–red pigment prodigiosin (2-methyl-3-pentyl-6-methoxyprodigiosin), capable of endogenous QS-signal molecule production (N-hexanoyl-L-HSL), were applied.
(§3) The QS inhibitory effect of the compounds was examined on the EZF and the sensor CV026 strains, on the wt85 strain, and on S. marcescens, for 4, 5, 11, 12, 16, 19, and 20. The method used was the parallel inoculation method, where pair combinations of the used sensor strain CV026 and the N-acyl-homoserine lactone (AHL)-producing strain EZF were inoculated directly onto the LB*-A agar surface in parallel, at an approximate distance of 5 mm from each other. S. marcescens AS-1 and wt85 were inoculated as a single line. Filter paper disks (7 mm in diameter) were placed on the center of the inoculated line(s) and impregnated with 8 µL of a solution of 10 mM of the compounds. […] The agar plates were incubated at room temperature (20 °C) for 24–48 h. The QS inhibition was accessed visually, through the inhibition of pigment production. The discolored, but intact, bacterial colonies were measured with a ruler.

[1] = system: Chromobacterium violaceum wild type 85 (wt85); experiment: as above; format: cell-based; details: read-out: Quorum Sensing Inhibition (mm) ± SD
Description: as §1, §2, §3

S. aureus 272123 [2] = experiment: Efflux pump inhibition assay (real-time ethidium bromide accumulation); format: cell-based, Staphylococcus aureus; details: compound 50 µM, EB 1 µg/mL, minute 60
Description: Compounds 1–20 were assessed for their capability of modulating ethidium bromide (EB) accumulation on two resistant strains. […] However, norA is a core gene of the S. aureus as a species, which means that the NorA pump occurs in all S. aureus strains.
(§4) Salmonella enterica serovar Typhimurium SE03, was used as a Gram-negative bacterium. This strain has a deletion of the acrA gene, which was predicted with the least affinity for the compounds. The aim of these studies was to perform a first screening of these compounds and their ability to modulate the efflux of EB. […] The relative fluorescence index (RFI) was calculated based on the means of relative fluorescence units, depicted in Table 2.
(§5) Compounds 1–20 were evaluated for their ability to inhibit efflux pumps in SE03 and S. aureus 272123 strains, through the real-time fluorimetry, monitoring the intracellular accumulation of EB, an efflux pump substrate. This was determined by the automated method using a CLARIOstar Plus plate reader (BMG Labtech, Ortenberg, Germany). Reserpine and CCCP were applied at 25 µM as positive controls, and the solvent DMSO was applied at 1% v/v. The bacterial strains were incubated in an appropriate culture media (TSB—S. aureus 272123; LB-B—SE03) at 37 °C until they reached an optical density (OD) between 0.4 and 0.6 at λ = 600 nm. The culture was centrifuged at 13,000× g for 3 min, and the pellet washed and resuspended with PBS. The suspension was centrifuged again in the same conditions and resuspended in PBS. The compounds were applied at 50 µM in a solution of a non-toxic concentration of EB (1 µg/mL) in PBS. Then, 50 µL of this solution were transferred into a 96-well black microtiter plate (Greiner Bio-One Hungary Kft, Mosonmagyaróvár, Fertősor, Hungary), and 50 µL of bacterial suspension (OD600 0.4–0.6) were added to each well. The plates were placed into the CLARIOstar plate reader, and the fluorescence was monitored at excitation and emission wavelengths of 530 nm and 600 nm every minute for one hour on a real-time basis. From the real-time data, the activity of the compounds, namely the RFI of the last time point (minute 60) of the EB accumulation assay, was calculated according to the following formula:(1) RFI=RFtreated−RFuntreated/RFuntreated where RFtreated is the relative fluorescence (RF) at the last time point of EB accumulation curve in the presence of the compound, and RFuntreated is the RF at the last time point of the EB accumulation curve of the untreated control, having only the solvent (DMSO) control. The accumulation curves were designed using Microsoft Excel®.

[3] = system: NIH/3T3 mouse fibroblast cells; experiment: Cytotoxicity assay (MTT); format: cell-based
Description: (§6) In order to apply efflux pump inhibitors to treat patients, several issues should be addressed.
(§7) Mouse fibroblasts (NIH/3T3, ATCC CRL-1658TM) were cultivated in DMEM (Gibco 52100-039) and supplemented with 10% heat-inactivated fetal bovine serum (Biowest, VWR International Kft, Debrecen, Hungary), 2 mM of L-glutamine, 1 mM Na pyruvate, 100 U/L and 10 mg/L penicillin/streptomycin mixture (Sigma-Aldrich Chemie GmbH, Steinheim, Germany), respectively, and 0.1% nystatin (8.3 g/L in ethylene glycol). The adherent cells were detached using a combination of 0.25% Trypsin–Versene (EDTA) solution for 5 min at 37 °C. Before each cytotoxicity assay using this cell line, cells were seeded in untreated 96-well flat-bottom microtiter plates, following a 4-h incubation period in a humidified atmosphere (5% CO2, 95% air) at 37 °C [60].
(§8) The cytotoxicity of 4, 12, 16, 19, and 20 was assessed in NIH/3T3 cells. The compounds were added to the cells distributed into 96-well flat bottom microtiter plates at concentrations of […] and initially incubated for 24 h, after which a solution of MTT in PBS was added to each well and incubated for another 4 h. The concentrations used were the same as in the MIC assay. After this, 100 μL of SDS (10% in a 0.01 M HCl solution) were added to each well and incubated overnight at 37 °C. Doxorubicin was used as the positive control. Cell growth was determined in quadruplicate by measuring OD at λ = 540 nm (reference 630 nm) in a Multiscan EX ELISA reader (Thermo Labsystems, Cheshire, WA, USA). The percentage of inhibition of cell growth was determined according to the equation: (2) 100−(ODsample−ODmedium control/ODcell control−ODmedium control)×100

Cytotoxicity assay (MTT) = format: cell-based, mouse; details: mouse, NIH/3T3 mouse fibroblast cells, 24 h, MTT, read-out: Cytotoxicity IC50 (µM) ± SD
Description: as §6, §7, §8

[4] = system: SE03 (acrA gene-inactivated Salmonella enterica serovar Typhimurium SL1344); experiment: Efflux pump inhibition assay (real-time ethidium bromide accumulation); format: cell-based; details: compound 50 µM, EB 1 µg/mL, minute 60
Description: as §4, §5

[5] = system: extended-spectrum β-lactamase producing strain; parameters: method as in PMID 32455828; details: previous results; ref [14]; cited from earlier work
S. aureus ATCC 29213 = experiment: Inhibition of biofilm formation (crystal violet); format: cell-based, Staphylococcus aureus; details: half the MIC, or 100 µM if MIC >100 µM, 48 h, 30 °C
[6] = system: EZF + CV026 (Sphingomonas paucimobilis Ezf 10-17 + Chromobacterium violaceum CV026); experiment: Quorum sensing inhibition assay (parallel inoculation, pigment production); format: cell-based; details: read-out: Quorum Sensing Inhibition (mm) ± SD
Description: as §1, §2, §3

S. aureus 272123 [7] = experiment: Inhibition of biofilm formation (crystal violet); format: cell-based, Staphylococcus aureus; details: half the MIC, or 100 µM if MIC >100 µM, 48 h, 30 °C
Description: The biofilm inhibition, presented in percentages (%), was calculated based on the mean of absorbance units.
The bacterial strains used were the Gram-positive S. aureus ATCC 25923 and S. aureus 272123. The detection of the biofilm formation was possible with the use of the dye crystal violet (CV; 0.1% v/v). The initial inoculum was incubated in TSB overnight, and then diluted to an OD600 of 0.1. Then, the bacterial suspension was added to 96-well microtiter plates and the compounds were added at half the MIC. […] The final volume in each well was 200 µL. […] The plates were incubated at 30 °C for 48 h, with gentle stirring (100 rpm). After this incubation period, the TSB medium was discarded, and the plates were washed with tap water to remove unattached cells. Afterwards, 200 µL of a 0.1% v/v CV solution were added to the wells and incubated for 15 min at room temperature. Then, the CV solution was removed from the wells, and the plates were washed again with tap water, and 200 µL of a 70% ethanolic solution were added to the wells. The biofilm formation was determined by measuring the OD600 using a Multiscan EX ELISA plate reader (Thermo Labsystems, Cheshire, WA, USA). The anti-biofilm effect of the compounds was expressed as the percentage (%) of decrease in biofilm formation.

SMILES | zone of inhibition at 10000 µM (Serratia marcescens AS-1) [mm] | zone of inhibition at 10000 µM [1] [mm] | RFI ± SD (relative fluorescence index) (S. aureus 272123 [2]) | Cytotoxicity (in words) [3] | IC50 at 24 h (Cytotoxicity assay (MTT)) [µM] | RFI ± SD (relative fluorescence index) [4] | activity against extended-spectrum β-lactamase producing strain (in words) [5] | Inhibition of Biofilm Formation (%) ± SD (S. aureus ATCC 29213) | zone of inhibition at 10000 µM [6] [mm] | Inhibition of Biofilm Formation (%) ± SD (S. aureus 272123 [7])
O=c1c2cc(O)ccc2oc2cccc(O)c12 [Compound 4] | 0 | 0 | 0.13 ± 0.08 ^2 | no cytotoxicity was observed | > 100 | 2.90 ± 0.71 ^7 | not active | 0 ^1% | 0 | 
COc1cc(CBr)c2c(=O)c3ccccc3oc2c1OC [Compound 12] | 0 | 0 | 0.11 ± 0.30 ^4 | moderate cytotoxicity | 54.6 ± 5.3 | 1.75 ± 1.57 ^9 |  | 0 ^1% | 30 ± 0.5 | 6.27 ± 1.41 ^3%
COc1ccc2c(=O)c3c(C=O)cc(OC)c(OC)c3oc2c1 [Compound 16] | 0 | 0 | 5.49 ± 8.04 ^5 | moderate cytotoxicity | 26.9 ± 5.87 | 0.13 ± 0.15 ^10 |  | 0 ^2% | 42 ± 0.8 | 58.98 ± 12.00 ^4%
